*1 amine or outer side, *2 acyl side, *3 side chain or, on linkers, in order; H or OH if unused. Where a SMILES comes first, the peptide text is derived from it. Bridges are numbered along the chain shown (N, C = ends). Side-chain parts run from the residue outwards. [ ]: non-standard residue; d: D form. The star is where a group is joined. ξ: configuration not given here. Ala(piperidin-4-yl) = O=C([C@H](CC1CCN([*:3])CC1)N[*:1])[*:2]; DOTA = O=C(O)CN1CCN(CC(=O)O)CCN(CC(=O)*)CCN(CC(=O)O)CC1; Me3N+(CH2)2O(CH2)2O(CH2)2CO = C[N+](C)(C)CCOCCOCCC(=O)*; X3 = O=C([C@H](CC1CCN(CC(=O)[*:3])CC1)N[*:1])[*:2]; 2Nal = N[C@@H](Cc1ccc2ccccc2c1)C(=O)O; NMetBuAla = CN[C@@H](CC(C)(C)C)C(=O)O; Ethylenediamine = C(CN[*:2])N[*:1]; tBuAla = CC(C)(C)C[C@H](N)C(=O)O; Thr(3ξ) = CC(O)[C@H](N)C(=O)O; αMeP = C[C@@]1(C(=O)O)CCCN1; CH2 = C([*:1])[*:2]
T1: DLL3 (Homo sapiens, UniProt Q9NYJ7)
T1 sequence (Q9NYJ7 27-618): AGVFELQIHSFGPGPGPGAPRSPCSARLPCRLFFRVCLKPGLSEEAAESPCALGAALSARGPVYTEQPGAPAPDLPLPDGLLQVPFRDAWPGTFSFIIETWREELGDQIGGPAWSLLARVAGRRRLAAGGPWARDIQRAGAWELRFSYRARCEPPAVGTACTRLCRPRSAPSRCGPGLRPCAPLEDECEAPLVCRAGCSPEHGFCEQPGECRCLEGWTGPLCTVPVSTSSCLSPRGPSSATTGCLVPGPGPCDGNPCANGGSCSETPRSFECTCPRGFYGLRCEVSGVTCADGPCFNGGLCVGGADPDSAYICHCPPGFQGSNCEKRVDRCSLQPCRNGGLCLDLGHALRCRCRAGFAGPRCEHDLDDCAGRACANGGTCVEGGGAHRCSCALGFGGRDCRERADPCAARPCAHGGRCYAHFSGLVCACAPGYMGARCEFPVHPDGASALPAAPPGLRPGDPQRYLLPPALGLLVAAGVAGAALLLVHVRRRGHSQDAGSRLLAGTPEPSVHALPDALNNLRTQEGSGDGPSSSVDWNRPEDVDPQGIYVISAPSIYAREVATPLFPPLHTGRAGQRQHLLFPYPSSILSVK

T2: DLL3 (target ligand immobilized on a SA sensor chip via streptavidin capture) (Homo sapiens (Human), UniProt Q9NYJ7 27-492, limits assumed)
T2 sequence: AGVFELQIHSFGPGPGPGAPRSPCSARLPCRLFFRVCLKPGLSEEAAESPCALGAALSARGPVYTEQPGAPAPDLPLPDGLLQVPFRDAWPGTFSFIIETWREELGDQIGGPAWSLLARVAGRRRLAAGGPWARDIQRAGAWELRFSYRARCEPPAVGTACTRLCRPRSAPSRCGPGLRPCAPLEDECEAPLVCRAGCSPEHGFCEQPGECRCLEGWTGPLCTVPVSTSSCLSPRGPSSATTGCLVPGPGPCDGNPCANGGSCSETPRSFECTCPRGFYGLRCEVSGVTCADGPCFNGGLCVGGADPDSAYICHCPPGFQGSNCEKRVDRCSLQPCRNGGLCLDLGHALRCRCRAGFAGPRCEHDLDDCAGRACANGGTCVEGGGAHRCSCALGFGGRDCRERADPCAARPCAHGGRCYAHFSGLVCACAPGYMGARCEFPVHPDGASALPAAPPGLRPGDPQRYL


How the values were obtained:
[1] = system: nude mice bearing SHP-77 tumors; assay: Ex vivo biodistribution of radiolabeled peptides (% IA/g) in nude mice bearing SHP-77 tumors; conditions: [177Lu]Lu labelling, 24 hours post-injection, intravenous
Procedure: Mice were intravenously injected (via the lateral tail vein) with a bolus dose of the radiolabeled peptides for ex vivo biodistribution studies when tumor volumes were in range of 200-400 mm^3 for xenograft mice and when age of the mice was 5-7 weeks for tumor naïve mice studies. To assess the amount of radionuclide injected into individual mice the syringe was assayed in a dose calibrator before and after injection for [^177Lu]Lu-peptide, then the injected dose was determined from the weight difference and concentration of the radionuclide solution.
Mice were euthanized at pre-determined time points and selected tissues were resected and collected into pre-weighed tubes. The tubes were then reweighed post resection, the difference giving the weight of each tissue. Radioactivity in each tissue was measured using a gamma counter. Counts were decay corrected to the time of injection and percentage of injected activity per gram (% IA/g) was calculated for each tissue based on the injected activity into each individual mouse. Injected activity was converted to counts based on the sensitivity of the gamma counter. The counts in tissue were then converted to the percentage of injected activity and this was divided by the mass of tissue to give % IA/g.

[2] = target: T1, DLL3; assay: SPR KD, biotinylated human DLL3 on streptavidin chip (Table 8); design: biotin (biotinylated); conditions: biotinylated human DLL3 on streptavidin sensor chip, 25° C., 1:1 binding model; read-out: SPR KD
Text: Biotinylated target ligand human DLL3 was immobilized on a streptavidin sensor chip. A reference surface was set up for nonspecific binding and refractive index changes. […] Sensorgram curves were fitted with 1:1 binding model, and affinity and kinetic parameters were obtained using Biacore Insight evaluation 4.0. software.

[3] = target: T2, DLL3 (target ligand immobilized on a SA …); assay: SPR, Biacore S200, target ligand on SA chip, 25 C, 1:1 fit
Procedure: Target ligand was immobilized on a SA sensor chip via streptavidin capture. A reference surface was set up for nonspecific binding and refractive index changes. For analysis of the kinetics of interactions, varying concentrations of peptides were injected at a flow rate of 50 μL/minute using running buffer containing 20 mM phosphate buffer with 2.7 mM KCl, 137 mM NaCl and 0.05% Surfactant P20. Sensorgram curves were fitted with 1:1 binding model, and affinity and kinetic parameters were obtained using either Biacore S200 evaluation software 1.1.1 or Biacore Insight evaluation 4.0.

Molecule	Kd [2] [nM]	Kd [3] [nM]	other results
CC(=O)N[C@@H](Cc1c[nH]c2ccccc12)C(=O)N[C@H](C(=O)N[C@@H](CC(C)(C)C)C(=O)N[C@H]1CSCSC[C@@H](C(=O)N[C@@H](Cc2c[nH]c3ccccc23)C(=O)N2CCC[C@@]2(C)C(N)=O)NC(=O)[C@H](CC(=O)O)NC(=O)[C@H](CCCCNC(=O)CN2CCN(CC(=O)O)CCN(CC(=O)O)CCN(CC(=O)O)CC2)NC(=O)[C@H](Cc2ccc3ccccc3c2)NC(=O)[C@H](CC(N)=O)NC(=O)[C@H](CC2CCNCC2)NC1=O)[C@@H](C)O [compound 437, Ac-W-T-(t-Bu-Ala)-C(1)-[3-(4-piperidinyl)-Ala]-N-(2Nal)-Lys(DOTA)-D-C(1)-W-(aMe-P)-CONH2] (Ac-WT[tBuAla]C[Ala(piperidin-4-yl)]N[2Nal]K(DOTA)DCW[αMeP]-NH2; linker 4-10 via CH2)	< 1		kidney uptake (% IA/g) [1]: C (“C” represents 0 < % IA/g ≤ 10 in); tumor uptake (% IA/g) [1]: B (“B” represents % IA/g > 5 in tumor)
CC(=O)N[C@@H](Cc1c[nH]c2ccccc12)C(=O)N[C@H](C(=O)N(C)[C@@H](CC(C)(C)C)C(=O)N[C@H]1CSCSC[C@@H](C(=O)N[C@@H](Cc2c[nH]c3ccccc23)C(=O)N2CCC[C@@]2(C)C(=O)O)NC(=O)[C@H](CC(=O)O)NC(=O)[C@H](CCCCNC(=O)CN2CCN(CC(=O)O)CCN(CC(=O)O)CCN(CC(=O)O)CC2)NC(=O)[C@H](Cc2ccc3ccccc3c2)NC(=O)[C@H](CC(N)=O)NC(=O)[C@H](CC2CCNCC2)NC1=O)C(C)O (stereo partly drawn) [compound 443, Ac-W-T-(NMe-tBuAla)-C(1)-[3-(4-piperidinyl)-Ala]-N-(2Nal)-Lys(DOTA)-D-C(1)-W-(aMe-P)-CO2H] (Ac-W[Thr(3ξ)][NMetBuAla]C[Ala(piperidin-4-yl)]N[2Nal]K(DOTA)DCW[αMeP]-OH; linker 4-10 via CH2)	< 1		kidney uptake (% IA/g) [1]: C (“C” represents 0 < % IA/g ≤ 10 in); tumor uptake (% IA/g) [1]: B (“B” represents % IA/g > 5 in tumor)
CC(=O)N[C@@H](Cc1c[nH]c2ccccc12)C(=O)N[C@H](C(=O)N(C)[C@@H](CC(C)(C)C)C(=O)N[C@H]1CSCSC[C@@H](C(=O)N[C@@H](Cc2c[nH]c3ccccc23)C(=O)N2CCC[C@H]2C(N)=O)NC(=O)[C@H](CC(=O)O)NC(=O)[C@H](CCCCNC(=O)CN2CCN(CC(=O)O)CCN(CC(=O)O)CCN(CC(=O)O)CC2)NC(=O)[C@H](Cc2ccc3ccccc3c2)NC(=O)[C@H](CC(N)=O)NC(=O)[C@H](CC2CCN(C(=O)CCOCCOCC[N+](C)(C)C)CC2)NC1=O)[C@@H](C)O [compound 448] (Ac-WT[NMetBuAla]C[Ala(piperidin-4-yl)](Me3N+(CH2)2O(CH2)2O(CH2)2CO)N[2Nal]K(DOTA)DCWP-NH2; linker 4-10 via CH2)	< 1		
CC(=O)N[C@@H](Cc1c[nH]c2ccccc12)C(=O)N[C@H](C(=O)N(C)[C@@H](CC(C)(C)C)C(=O)N[C@H]1CSCSC[C@@H](C(=O)N[C@@H](Cc2c[nH]c3ccccc23)C(=O)N2CCC[C@H]2C(N)=O)NC(=O)[C@H](CC(=O)O)NC(=O)[C@H](CCCCNC(=O)CN2CCN(CC(=O)O)CCN(CC(=O)O)CCN(CC(=O)O)CC2)NC(=O)[C@H](Cc2ccc3ccccc3c2)NC(=O)[C@H](CC(N)=O)NC(=O)[C@H](CC2CCN(CC(=O)NCCNC(=O)CN3CCN(CC(=O)O)CCN(CC(=O)O)CCN(CC(=O)O)CC3)CC2)NC1=O)[C@@H](C)O [compound 449] (Ac-WT[NMetBuAla]C[X3]([Ethylenediamine-DOTA])N[2Nal]K(DOTA)DCWP-NH2; linker 4-10 via CH2)	< 1		
CCCCCCCCCCCCCCCC(=O)N[C@@H](CCC(=O)NCCOCCOCCOCCOCCOCCOCCOCCOCCOCCOCCOCCOCCOCCOCCOCCOCCOCCOCCOCCOCCOCCOCCOCCOCCC(=O)NCCCC[C@H](NC(=O)CN1CCC(C[C@@H]2NC(=O)[C@@H](NC(=O)[C@H](CC(C)(C)C)N(C)C(=O)[C@@H](NC(=O)[C@H](Cc3c[nH]c4ccccc34)NC(C)=O)[C@@H](C)O)CSCSC[C@@H](C(=O)N[C@@H](Cc3c[nH]c4ccccc34)C(=O)N3CCC[C@H]3C(N)=O)NC(=O)[C@H](CC(=O)O)NC(=O)[C@H](CCCCNC(=O)CN3CCN(CC(=O)O)CCN(CC(=O)O)CCN(CC(=O)O)CC3)NC(=O)[C@H](Cc3ccc4ccccc4c3)NC(=O)[C@H](CC(N)=O)NC2=O)CC1)C(=O)O)C(=O)O [compound 450, Ac-W-T-(NMe-tBuAla)-C(1)-[PipA(acetic-Lys-PEG24-gE-palmitoyl)]-N-(2Nal)-Lys(DOTA)-D-C(1)-W-P-CONH2]	< 1		
Ac-MWTICADWAQCWP-NH2 (disulfide 5-11; SMILES CC[C@H](C)[C@H](NC(=O)[C@@H](NC(=O)[C@H](Cc1c[nH]c2ccccc12)NC(=O)[C@H](CCSC)NC(C)=O)[C@@H](C)O)C(=O)N[C@H]1CSSC[C@@H](C(=O)N[C@@H](Cc2c[nH]c3ccccc23)C(=O)N2CCC[C@H]2C(N)=O)NC(=O)[C@H](CCC(N)=O)NC(=O)[C@H](C)NC(=O)[C@H](Cc2c[nH]c3ccccc23)NC(=O)[C@H](CC(=O)O)NC(=O)[C@H](C)NC1=O) [SEQ ID NO 67]		72	
Ac-MDCNFFDCDAWTW-NH2 (disulfide 3-8; SMILES CSCC[C@H](NC(C)=O)C(=O)N[C@@H](CC(=O)O)C(=O)N[C@H]1CSSC[C@@H](C(=O)N[C@@H](CC(=O)O)C(=O)N[C@@H](C)C(=O)N[C@@H](Cc2c[nH]c3ccccc23)C(=O)N[C@H](C(=O)N[C@@H](Cc2c[nH]c3ccccc23)C(N)=O)[C@@H](C)O)NC(=O)[C@H](CC(=O)O)NC(=O)[C@H](Cc2ccccc2)NC(=O)[C@H](Cc2ccccc2)NC(=O)[C@H](CC(N)=O)NC1=O) [SEQ ID NO 76]		290	
Ac-MVWVPCEWDDCFY-NH2 (disulfide 6-11; SMILES CSCC[C@H](NC(C)=O)C(=O)N[C@H](C(=O)N[C@@H](Cc1c[nH]c2ccccc12)C(=O)N[C@H](C(=O)N1CCC[C@H]1C(=O)N[C@H]1CSSC[C@@H](C(=O)N[C@@H](Cc2ccccc2)C(=O)N[C@@H](Cc2ccc(O)cc2)C(N)=O)NC(=O)[C@H](CC(=O)O)NC(=O)[C@H](CC(=O)O)NC(=O)[C@H](Cc2c[nH]c3ccccc23)NC(=O)[C@H](CCC(=O)O)NC1=O)C(C)C)C(C)C) [SEQ ID NO 78]		68	
Ac-MSDCWLQWNCPFD-NH2 (disulfide 4-10; SMILES CSCC[C@H](NC(C)=O)C(=O)N[C@@H](CO)C(=O)N[C@@H](CC(=O)O)C(=O)N[C@H]1CSSC[C@@H](C(=O)N2CCC[C@H]2C(=O)N[C@@H](Cc2ccccc2)C(=O)N[C@@H](CC(=O)O)C(N)=O)NC(=O)[C@H](CC(N)=O)NC(=O)[C@H](Cc2c[nH]c3ccccc23)NC(=O)[C@H](CCC(N)=O)NC(=O)[C@H](CC(C)C)NC(=O)[C@H](Cc2c[nH]c3ccccc23)NC1=O) [SEQ ID NO 79]		32	
{DOTA}-WTICNNWHDCWP-NH2 (disulfide 4-10) [SEQ ID NO 80]		80	
Ac-MWTICNNWHDCWP-NH2 (disulfide 5-11) [SEQ ID NO 69]		12	

— US20250049970A1, “DLL3 TARGETING PEPTIDES AND CONSTRUCTS THEREOF” (MARIANA ONCOLOGY INC., priority 2023, published 2025)
